Assay results taken from patent US9249157B2, “Tricyclic heterocycle compounds” (BRISTOL-MYERS SQUIBB COMPANY, priority 2012, dated 2016).

Key:
[1] = system: human Notch 3; assay: Notch-CBF1 Transactivation Assay (Notch 3); assay type: cell-based; conditions: HeLa cells transfected with truncated Notch 3 and CBF1 luciferase reporter; 18 hours incubation
Description: (§1) Notch-CBF1 Transactivation Assay
(§2) The Notch-CBF1 (C-promoter binding factor I) cell based transactivation assay is based on the ability of the released Notch intracellular domain fragments (NICDs) to function as transcription factors in conjunction with CBF1 and other nuclear factors. Luciferase assays were used to measure the antagonism of Notch-CBF1 transcriptional activity. HeLa cervical cancer cells are transiently co-transfected with pCDNA3.1/Hygro plasmids containing truncated Notch 1, Notch 2, Notch 3, or Notch 4 receptors and a PGL3 luciferase reporter vector containing 4 copies of CBF1 binding site. The cells were then tested for Notch-CBF1 activity in the absence or presence of test compounds. HeLa cells, maintained in DMEM (high glucose with HEPES), 1× glutamine/penicillin/streptomycin and 10% Fetal Bovine serum, were transiently transfected in a T175 Flask (4.5×10^6 cells/flask) using the Monster Transfection Kit (Minis #MIR2906) according to manufacturers specifications. Table 1 denotes respective DNA quantity for the transfections.
(§3) Six hours post-transfection, cells were trypsinized and plated into a 384-well black Poly-D-lysine coated tissue culture plate at a density of 5×10^3 cells/well in 95 μL assay media (DMEM (high glucose with HEPES), 1× glutamine/penicillin/streptomycin, 0.0125% BSA, 1× non-essential amino acids). Assay media (5 μL) containing test compounds in final concentrations ranging from 5 μM to 8.4×10^−5 μM (3 fold serial dilutions) were added to the cells and the cell plates were then incubated for 18 hours at 37° C. and 5% CO2. Control wells contained DMSO vehicle (total counts) or 0.5 μM of an in-house small molecule inhibitor (background counts). Duplicates were used for each sample. Luciferase activity was measured after a 20-minute incubation with 50 μl STEADY-GLO® luciferase reagents according to manufacturer's specifications (Promega, Cat. #E2550) and analyzed by Envision plate reader (PerkinElmer, Boston, Mass.).
(§4) The antagonist effect of compounds was expressed as 100×[1−(average sample−average background)/(average total−average background)] where sample is the luciferase activity in the presence of test compound, background is equal to the luciferase activity in the presence of the small molecule inhibitor control and the total is signal induced in DMSO wells.

[2] = system: human Notch 1; assay: Notch-CBF1 Transactivation Assay (Notch 1); assay type: cell-based; conditions: HeLa cells transfected with truncated Notch 1 and CBF1 luciferase reporter; 18 hours incubation
Description: as §1, §2, §3, §4

SMILES | IC50 [1] | IC50 [2]
NC(=O)[C@@H](CC1CC1)[C@@H](CCC(F)(F)F)C(=O)N[C@H]1N=C(c2ccccc2)c2cccc3c2N(CCO3)C1=O [Example 6, (2R,3S)-3-(Cyclopropylmethyl)-N-((6S)-5-oxo-8-phenyl-2,3,5,6-tetrahydro[1,4]oxazino[2,3,4-jk][1,4]benzodiazepin-6-yl)-2-(3,3,3-trifluoropropyl)succinamide] | 14.8 nM | 
NC(=O)[C@@H](CCCF)[C@@H](CCC(F)(F)F)C(=O)N[C@H]1N=C(c2ccccc2)c2cccc3c2N(CCO3)C1=O [Example 8, (2R,3S)-3-(3-Fluoropropyl)-N-((6S)-5-oxo-8-phenyl-2,3,5,6-tetrahydro[1,4]oxazino[2,3,4-jk][1,4]benzodiazepin-6-yl)-2-(3,3,3-trifluoropropyl)succinamide] | 28.1 nM | 14.8 nM
Cc1cccc(C2=N[C@H](NC(=O)[C@H](CCC(F)(F)F)[C@H](CCC(F)(F)F)C(N)=O)C(=O)N3CCOc4cccc2c43)c1 [Example 11, (2R,3S)—N-((6S)-8-(3-Methylphenyl)-5-oxo-2,3,5,6-tetrahydro[1,4]oxazino[2,3,4-jk][1,4]benzodiazepin-6-yl)-2,3-bis(3,3,3-trifluoropropyl)succinamide] | 14.7 nM | 
Cc1cccc(C2=N[C@H](NC(=O)[C@H](CCC(F)(F)F)[C@@H](C(N)=O)c3ccccc3)C(=O)N3CCOc4cccc2c43)c1 [Example 13, (2R,3R)—N-((6S)-8-(3-Methylphenyl)-5-oxo-2,3,5,6-tetrahydro[1,4]oxazino[2,3,4-jk][1,4]benzodiazepin-6-yl)-3-phenyl-2-(3,3,3-trifluoropropyl)succinamide] |  | 14.8 nM
CCC[C@H](C(N)=O)[C@@H](CCC(F)(F)F)C(=O)N[C@H]1N=C(c2cccc(Cl)c2)c2cccc3c2N(CCO3)C1=O [Example 15, (2R,3S)—N-((6S)-8-(3-Chlorophenyl)-5-oxo-2,3,5,6-tetrahydro[1,4]oxazino[2,3,4-jk][1,4]benzodiazepin-6-yl)-3-propyl-2-(3,3,3-trifluoropropyl)succinamide] | 28.3 nM | 16.9 nM
CCC[C@@H](C(=O)N[C@H]1N=C(c2ccccc2)c2cccc3c2N(CCO3)C1=O)[C@H](CCC(F)(F)F)C(N)=O [Example 17, (2R,3S)—N-((6S)-5-Oxo-8-phenyl-2,3,5,6-tetrahydro[1,4]oxazino[2,3,4-jk][1,4]benzodiazepin-6-yl)-2-propyl-3-(3,3,3-trifluoropropyl)succinamide] | 20.1 nM | 13.9 nM
NC(=O)[C@@H](CC1CC1)[C@@H](CC1CC1)C(=O)N[C@H]1N=C(c2ccccc2)c2cccc3c2N(CCO3)C1=O [Example 18, (2R,3S)-2,3-Bis(cyclopropylmethyl)-N-((6S)-5-oxo-8-phenyl-2,3,5,6-tetrahydro[1,4]oxazino[2,3,4-jk][1,4]benzodiazepin-6-yl)succinamide] | 16.4 nM | 21.9 nM
NC(=O)[C@@H](CC1CC1)[C@@H](CCC(F)(F)F)C(=O)N[C@H]1N=C(c2ccccc2)c2cccc3c2N(CCCO3)C1=O [Example 23, (2R,3S)-3-(Cyclopropylmethyl)-N-((7S)-6-oxo-9-phenyl-3,4,6,7-tetrahydro-2H-[1,4]diazepino[1,7,6-ef][1,5]benzoxazepin-7-yl)-2-(3,3,3-trifluoropropyl)succinamide] | 14.2 nM | 
Cc1nocc1[C@H](C(N)=O)[C@@H](CCC(F)(F)F)C(=O)N[C@H]1N=C(c2ccccc2)c2cccc3c2N(CCN3)C1=O [Example 24, (2R,3R)-3-(3-Methyl-4-isoxazolyl)-N-((6S)-5-oxo-8-phenyl-2,3,5,6-tetrahydro-1H-[1,4]diazepino[1,7,6-de]quinoxalin-6-yl)-2-(3,3,3-trifluoropropyl)succinamide] | 28.3 nM | 16.9 nM
NC(=O)[C@@H](c1ccccc1)[C@@H](CCC(F)(F)F)C(=O)N[C@H]1N=C(c2ccccc2)c2cccc3c2N(CCN3)C1=O [Example 27, (2R,3R)—N-((6S)-5-Oxo-8-phenyl-2,3,5,6-tetrahydro-1H-[1,4]diazepino[1,7,6-de]quinoxalin-6-yl)-3-phenyl-2-(3,3,3-trifluoropropyl)succinamide] |  | 15.1 nM
